Assay results taken from PMC12794516, “Modulation of endothelial-to-mesenchymal transition via NRP-1 targeting with melittin attenuates pulmonary fibrosis” (Materials Today Bio, 2025).

Experiments:
[1] = In vivo and ex vivo fluorescence imaging (biodistribution, blood and lung retention); design: species or system C57BL/6 mice
Method: To evaluate the biodistribution and lung targeting of MLT and M-pLNP, two fluorescence imaging experiments were performed in a BLM-induced PF model. In the first study, normal and PF mice (n = 6) received a single intraperitoneal injection of MLT-RhB (or PBS control), and were euthanized 30 min later for collection of major organs. In the second study, PF mice were randomly divided into two groups receiving either MLT-RhB or M-pLNP-RhB. Comprehensive in vivo whole-body fluorescence imaging was performed at multiple time points (10 min, 30 min, 1 h, 3 h and 6 h) after administration. Additionally, ex vivo analysis was conducted by collecting blood samples and lung tissues at […] critical time points (10 min, 30 min, 1 h, 6 h, 12 h, and 24 h). All imaging was performed using an IVIS Lumina XRMS system, in vivo and ex vivo samples were imaged through RhB channels (Ex/Em = 545/570 nm). Mean fluorescence intensity was used to quantitatively assess tissue distribution and lung accumulation.

NRP-1 receptor on HUVECs = assay: In vitro cell targeting (uptake of MLT-RhB, flow cytometry and confocal imaging); type: cell-based, Human; details: flow cytometry; HUVECs with TGF-β1 10 ng/mL 48 h; MLT-RhB 2 μg/mL 1 h; n = 3
Method: To assess the NRP-1 receptor-targeting ability of MLT, HUVECs were seeded into 96-well plates at a density of 1.5 × 10^4 cells per well and cultured overnight in complete growth medium. TGF-β1 (10 ng/mL) was added to all groups except the control group and incubated for 48 h. Subsequently, each group was treated with the RPARPAR peptide (0.5 mM) for 1 h, followed by the addition of MLT-RhB (2 μg/mL) for an additional hour. For flow cytometry, cells were processed and analyzed using a flow cytometer (Dakewe Biotech Co., Ltd., China), and data were analyzed with FlowJo software (FlowJo, Ashland, OR, USA). For immunofluorescence, following the same treatment protocol, cells were fixed with 4 % paraformaldehyde and immunostained. NRP-1 was detected using an anti-NRP-1 primary antibody and an Alexa Fluor® 647-conjugated secondary antibody. Nuclei were stained with DAPI. Imaging was performed using a SpinSR10 spinning disk confocal super-resolution microscope (Olympus, Japan) with the following excitation wavelengths: 405 nm for DAPI; 535 nm for RhB; and 640 nm for NRP-1.

HUVECs = assay: Cell viability assay (MTS); type: cell-based, Human; details: 24 h incubation, n = 3
Method: Cell viability was assessed using the MTS assay (Promega). Briefly, HUVECs were seeded at 5000 cells/well in triplicate in a 96-well plate. When the density of the cells reached approximately 80 %, MLT at different concentrations was added, and the cells were incubated for 24 h. Then, 20 μL of MTS reagent was added to each well, followed by incubated for 2 h. Absorbance was measured at 490 nm using a microplate reader.

[2] = RhB-labeled, single i.p. injection, PF mice, ex vivo lung fluorescence, n = 3

Molecule | lung radiant efficiency, PF lungs vs control ([1]; MLT-RhB single intraperitoneal injection, ex vivo imaging 30 min post-injection, PF vs normal mice, n = 3) [fold] | mean fluorescence intensity (MFI) of RhB in TGF-β1 group vs control group (uptake) (NRP-1 receptor on HUVECs) | time within which the blood fluorescence signal was nearly undetectable ([1]; RhB-labeled, single i.p. injection, 15 nmol RhB equivalent per mouse, PF mice, blood samples) [h] | time within which the peritoneal fluorescence signal was substantially weakened ([1]; RhB-labeled, single i.p. injection, 15 nmol RhB equivalent per mouse, PF mice, in vivo imaging) [min] | time by which lung fluorescence reached near-background levels (clearance) [1, 2] [h] | time of peak lung accumulation [1, 2] [min] | concentration at which MLT started to induce cellular toxicity (HUVECs) [ng/mL]
MLT-RhB: Rhodamine B-labeled MLT | ~1.5 | significantly higher than that in the control group |  |  |  |  | 
CC[C@H](C)[C@H](NC(=O)CN)C(=O)NCC(=O)N[C@@H](C)C(=O)N[C@H](C(=O)N[C@@H](CC(C)C)C(=O)N[C@@H](CCCCN)C(=O)N[C@H](C(=O)N[C@@H](CC(C)C)C(=O)N[C@H](C(=O)N[C@H](C(=O)NCC(=O)N[C@@H](CC(C)C)C(=O)N1CCC[C@H]1C(=O)N[C@@H](C)C(=O)N[C@@H](CC(C)C)C(=O)N[C@H](C(=O)N[C@@H](CO)C(=O)N[C@@H](Cc1c[nH]c2ccccc12)C(=O)N[C@H](C(=O)N[C@@H](CCCCN)C(=O)N[C@@H](CCCNC(=N)N)C(=O)N[C@@H](CCCCN)C(=O)N[C@@H](CCCNC(=N)N)C(=O)N[C@@H](CCC(N)=O)C(=O)N[C@@H](CCC(N)=O)C(N)=O)[C@@H](C)CC)[C@@H](C)CC)[C@@H](C)O)[C@@H](C)O)C(C)C)C(C)C [MLT, Melittin] |  |  | ≤ 6 | 30 | ≤ 6 | 30 | 8000
